Results published in patent publication US12606552B2, “Bifunctional compound, preparation method therefor, and use thereof” (SUZHOU KINTOR PHARMACEUTICALS, INC., priority 2020, dated 2026).

How the values were obtained:
[1] = Pharmacokinetic studies of compounds in mice; type: in vivo; conditions: male mice, intragastric administration 10 mg/kg, plasma
Description: Activity Assay Example 3: Pharmacokinetic Studies of Compounds in Mice
In this test, 3 male mice were selected and divided into 1 group, 3 mice/group. All animals were fasted overnight before administration.
The intragastric administration dose was 10 mg/kg, and the administration volume was 10 mL/kg.
2.2 Preparation of Drug Solution
According to the animal body weight combined with the administration dose, the amount of the required drug solution was calculated. An appropriate amount of the test substance was weighed, added with 5% of the final volume of ethanol for dissolution, then added with 5% of the final volume of SolutolHS15, and finally added with PBS to the final volume, and mixed by vortex and fully dissolved to obtain a solution for intragastric administration (1 mg/mL). All solutions were prepared for immediate use.
2.3 Method of Administration
Before administration, the drug solution was placed on a magnetic stirrer in the animal laboratory and stirred for at least 10 min. During the administration process, vortex was continued to ensure uniformity of the drug solution. The theoretical volume of gavage administration was 10 mL/kg, which was administered with a syringe equipped with a gavage needle.
Before administration, the animals were weighed and the body weight of the animals involved in the experiment was recorded, and the administration volume of each animal was calculated according to the body weight. After administration, animals were promptly transferred back to the experimental cages to collect samples.
2.4 Observation of Animal Status
After administration, whether animals had abnormal reactions was observed immediately. If there were no abnormal reactions, animals were observed twice a day during the experiment. If abnormal reactions were found, they should be recorded in time, and the number of observations should be increased until the animals returned to normal or to the end of the experiment.
2.5 Sample Collection and Preservation
All experimental animals were fasted overnight before administration, and blood was collected at corresponding time points into blood collection tubes containing heparin sodium anticoagulant. After the whole blood was collected, the blood collection tube was gently shaken and placed on ice immediately, and then centrifuged (4° C., 4000 rpm, 10 min) to collect supernatant plasma samples, which were stored in a refrigerator at −80° C. before analysis.
2.6 Plasma Sample Processing and Analysis
The collected plasma samples were handed over to the Pharmacokinetic department for sample extraction, and the test substances in the plasma were extracted by protein precipitation method using organic reagents containing internal standards (acetonitrile:plasma=4:1, v/v). The extracted processed samples were submitted for quantitative concentration analysis by LC-MS/MS. According to the plasma concentration of each animal obtained by the analysis, software Kinetica (version 5.0) was used to calculate the main pharmacokinetic parameter eAUC30-120 according to the non-compartment model to evaluate the exposure amount; the test results are shown in Table 2: […]

AR = molecular target: T1, AR (Homo sapiens, UniProt P10275, T878A); assay: Effects of compounds on AR expression in LNCaP cells (ELISA, DC50); type: cell-based; set-up: Measurement of the Effects of Drugs on the Expression of AR in Cells by ELISA Method; endogenous in cells; host or cells: LNCaP; conditions: 24 hours of drug treatment, AR by ELISA
T1 sequence (P10275 1-920 T878A): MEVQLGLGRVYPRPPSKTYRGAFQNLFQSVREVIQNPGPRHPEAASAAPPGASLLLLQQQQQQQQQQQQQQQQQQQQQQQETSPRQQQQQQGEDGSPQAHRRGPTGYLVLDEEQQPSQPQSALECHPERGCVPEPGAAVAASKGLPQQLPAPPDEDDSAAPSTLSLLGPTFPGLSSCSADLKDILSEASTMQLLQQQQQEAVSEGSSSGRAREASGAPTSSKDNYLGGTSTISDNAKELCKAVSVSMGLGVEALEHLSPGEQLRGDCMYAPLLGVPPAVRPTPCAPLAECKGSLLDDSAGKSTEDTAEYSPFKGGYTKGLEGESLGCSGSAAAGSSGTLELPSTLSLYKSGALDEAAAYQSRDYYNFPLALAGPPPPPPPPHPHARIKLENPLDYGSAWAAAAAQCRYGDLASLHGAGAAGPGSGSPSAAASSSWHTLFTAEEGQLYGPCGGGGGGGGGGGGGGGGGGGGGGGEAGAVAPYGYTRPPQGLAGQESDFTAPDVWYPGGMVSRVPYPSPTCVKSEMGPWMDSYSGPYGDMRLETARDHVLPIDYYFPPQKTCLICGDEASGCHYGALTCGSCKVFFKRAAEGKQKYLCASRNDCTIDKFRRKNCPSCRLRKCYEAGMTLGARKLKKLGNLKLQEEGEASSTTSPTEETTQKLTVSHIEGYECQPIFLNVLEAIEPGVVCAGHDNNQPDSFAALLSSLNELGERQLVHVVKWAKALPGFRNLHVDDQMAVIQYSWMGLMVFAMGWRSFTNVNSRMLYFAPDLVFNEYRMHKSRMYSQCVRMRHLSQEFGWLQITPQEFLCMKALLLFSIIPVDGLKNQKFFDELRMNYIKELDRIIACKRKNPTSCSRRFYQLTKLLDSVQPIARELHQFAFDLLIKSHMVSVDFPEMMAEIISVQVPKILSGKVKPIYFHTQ
In short: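 LNCaP cells at about 15,000/well were treated for 24 h with compound at 0.0001–2 μmol/L final. AR in cell lysates was measured by ELISA (OD450). Inhibition was relative to DMSO control after blank subtraction, and DC50 was calculated from it.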

[2] = test system: androgenetic alopecia model in C57BL/6J mice; assay: Hair regeneration effects on androgenic alopecia C57 mouse model (DHT-induced); type: in vivo, C57BL/6N mice; conditions: AVER n = 6, score 0-5
From the text: Activity Assay Example 8: Hair Regeneration Effects of Compounds on Androgenic Alopecia C57 Mouse Model
The purpose of this study was to compare the effect of the compounds prepared by the present invention as AR protein degraders on hair regrowth in an androgenetic alopecia model in C57BL/6J mice by transdermal application route of administration, and to provide data to support subsequent clinical trials.
2. Experimental Principle
Name of test compound I: dihydrotestosterone DHT; name of test compound II: compound A46 of the present invention; name of test compound III: minoxidil.
4. Experimental animals: strain: C57BL/6N mice; age: 6-7 weeks; gender: male; number of animals: 70 (10 for later use); rearing environment: specific pathogen-free (SPF).
70 mice were deeply anesthetized, and the hair on the back of the mice was removed with an animal shaver, then the depilatory cream (Veet https://item.jd.com/6291245.html) was smeared evenly on the surface of the mice skin, and left 7-10 minutes. Then the hair was gently scraped off with a hair removal scraper against the direction of the hair, and finally the residual hair removal cream on the skin surface was fully washed with water to avoid burning the mice skin.
This experiment was divided into 6 groups, and the DHT administration started on the day of hair removal, A46 is administered on day 2 after hair removal and is counted as day 1 (the day of hair removal is counted as day 0).
5.3 Test Compound Preparation Method
5.4 Observation and Measurement Indicators • 1) Body weight/g: From the first day of administration, body weight was weighed and recorded twice a week. • 2) Hair regeneration (anagen) score (0 points: no darkening of skin color in all areas; 1 point: darkening of gray skin color areas; 2 points: visible short hair; 3 points: thin hair; 4 points: thick hair; 5 points: full hair growth).
All mice were photographed on day 1 after hair removal, and then photographed and scored daily from day 4 until the end of the experiment. • 3) At the end of the experiment, skin and blood collection operations were performed as needed. 5.5 Criteria for Drug Withdrawal and Experiment Termination
Data are presented as average±standard error (AVE±SEM). One-way multi-level analysis of variance was used for statistics. The comparison between each drug group and the model group was performed by Stundent's t-test or rank sum test, and the p value was calculated. p<0.05 means there is a significant difference between the two groups, p<0.01 means there is a extremely significant difference between the two groups.

Row | SMILES | eAUC0.5-2 h [1] [ng·h/mL] | DC50 (AR) [nM] | other results
1 | Cc1ncsc1-c1ccc([C@H](C)NC(=O)[C@@H]2C[C@@H](O)CN2C(=O)[C@@H](NC(=O)COCCCCOc2c(F)cc(-c3ncc(N4C(=S)N(c5ccc(C#N)c(C(F)(F)F)c5F)C(=O)C4(C)C)cc3C(F)(F)F)cc2F)C(C)(C)C)cc1 [Compound A115] | 1136 ± 164 | 214 | 
2 | Cc1ncsc1-c1ccc([C@H](C)NC(=O)[C@@H]2C[C@@H](O)CN2C(=O)[C@@H](NC(=O)COCCOc2ccc(-c3ncc(N4C(=S)N(c5ccc(C#N)c(C(F)(F)F)c5F)C(=O)C4(C)C)cc3F)cc2F)C(C)(C)C)cc1 [Compound A123] | 287 ± 146 | 61.3 | 
3 | Cc1ncsc1-c1ccc([C@H](C)NC(=O)[C@@H]2C[C@@H](O)CN2C(=O)[C@@H](NC(=O)COCCCCOc2c(F)cc(-c3ncc(N4C(=S)N(c5ccc(C#N)c(C(F)(F)F)c5F)C(=O)C4(C)C)cc3F)cc2F)C(C)(C)C)cc1 [Compound A124] | 2776 ± 292 | 188 | 
4 | Cc1ncsc1-c1ccc([C@H](C)NC(=O)[C@@H]2C[C@@H](O)CN2C(=O)[C@@H](NC(=O)COCCCCOc2ccc(-c3ccc(N4C(=S)N(c5ccc(C#N)c(C(F)(F)F)c5F)C(=O)C4(C)C)cn3)cn2)C(C)(C)C)cc1 [Compound A126] | 1110 ± 158 | 55 | 
5 | Cc1ncsc1-c1ccc([C@H](CC(=O)N2CCC(C#Cc3ccc(N4C(=S)N(c5ccc(C#N)c(C(F)(F)F)c5F)C(=O)C4(C)C)cc3)CC2)NC(=O)[C@@H]2C[C@@H](O)CN2C(=O)[C@@H](NC(=O)C2(F)CC2)C(C)(C)C)cc1 [Compound A133] | 2253 ± 851 | 33.3 | 
6 | Cc1ncsc1-c1ccc(CNC(=O)[C@@H]2C[C@@H](O)CN2C(=O)[C@@H](NC(=O)c2ccc(CNC(=O)CCCc3ccc(N4C(=S)N(c5ccc(C#N)c(C(F)(F)F)c5F)C(=O)C4(C)C)cn3)cc2)C(C)(C)C)cc1 [Compound A134] | 29 ± 22 | 1130 | 
7 | Cc1ncsc1-c1ccc([C@H](CC(=O)N2CCC(Oc3ccc(-c4ncc(N5C(=S)N(c6ccc(C#N)c(C(F)(F)F)c6F)C(=O)C5(C)C)cc4F)cc3F)CC2)NC(=O)[C@@H]2C[C@@H](O)CN2C(=O)[C@@H](NC(=O)C2(F)CC2)C(C)(C)C)cc1 [Compound A136] | 697 ± 127 | 68 | 
8 | CNC(=O)[C@@H]1C[C@@H](O)CN1C(=O)[C@@H](NC(=O)COCCCCOc1ccc(-c2ncc(N3C(=S)N(c4ccc(C#N)c(C(F)(F)F)c4F)C(=O)C3(C)C)cc2F)cc1F)C(C)(C)C [Compound A137] | 92 ± 34 | 145 | 
9 | Cc1ncsc1-c1ccc2[nH]c([C@@H]3C[C@@H](O)CN3C(=O)[C@@H](NC(=O)COCCCCOc3ccc(-c4ncc(N5C(=S)N(c6ccc(C#N)c(C(F)(F)F)c6F)C(=O)C5(C)C)cc4F)cc3F)C(C)(C)C)nc2c1 [Compound A138] | 471 ± 288 | 1500 | 
10 | Cc1ncsc1-c1ccc([C@H](CC(=O)NCCN2CCC(C#Cc3ccc(N4C(=S)N(c5ccc(C#N)c(C(F)(F)F)c5F)C(=O)C4(C)C)cc3)CC2)NC(=O)[C@@H]2C[C@@H](O)CN2C(=O)[C@@H](NC(=O)C2(F)CC2)C(C)(C)C)cc1 [Compound A139] | 53 ± 30 | 225 | 
11 | C[C@]12CCC(=O)C[C@@H]1CC[C@@H]1[C@@H]2CC[C@]2(C)[C@@H](O)CC[C@@H]12 [DHT, dihydrotestosterone, reference compound] |  |  | Hair regeneration score ([2]; DHT 30 mpk subcutaneous alone (model), 0 day): 0.00; Hair regeneration score ([2]; DHT 30 mpk subcutaneous alone (model), 3 days): 0.00; Hair regeneration score ([2]; DHT 30 mpk subcutaneous alone (model), 5 days): 0.00; Hair regeneration score ([2]; DHT 30 mpk subcutaneous alone (model), 7 days): 0.00; Hair regeneration score ([2]; DHT 30 mpk subcutaneous alone (model), 10 days): 0.00; Hair regeneration score ([2]; DHT 30 mpk subcutaneous alone (model), 12 days): 0.00; Hair regeneration score ([2]; DHT 30 mpk subcutaneous alone (model), 14 days): 0.17; Hair regeneration score ([2]; DHT 30 mpk subcutaneous alone (model), 17 days): 0.5
12 | Nc1cc(N2CCCCC2)nc(N)[n+]1[O-] [minoxidil, reference compound] |  |  | Hair regeneration score ([2]; 5% skin smear BID + DHT 30 mpk, 0 day): 0.00; Hair regeneration score ([2]; 5% skin smear BID + DHT 30 mpk, 3 days): 0.00; Hair regeneration score ([2]; 5% skin smear BID + DHT 30 mpk, 5 days): 0.00; Hair regeneration score ([2]; 5% skin smear BID + DHT 30 mpk, 7 days): 0.00; Hair regeneration score ([2]; 5% skin smear BID + DHT 30 mpk, 10 days): 0.33; Hair regeneration score ([2]; 5% skin smear BID + DHT 30 mpk, 12 days): 0.67; Hair regeneration score ([2]; 5% skin smear BID + DHT 30 mpk, 14 days): 1.67; Hair regeneration score ([2]; 5% skin smear BID + DHT 30 mpk, 17 days): 2.33
